Laboratory results reported in publication PMC12354831 (Cell Death Discovery, 2025).

Experiments:
[1] = CC50 determination (CCK-8) in normal astrocyte cell line SVGp12; format: cell-based; conditions: human, SVGp12 normal astrocyte cells, SVGp12 normal astrocytes
Protocol: The human normal astrocyte cell line SVGp12 was seeded in a 96-well plate at a density of 5 × 10^3 cells per well and incubated overnight at 37 °C in a humidified atmosphere containing 5% CO2. […] After the treatment period, 10 μL of CCK-8 reagent was added to each well, followed by an additional incubation for 1 h under the same conditions. The absorbance at 450 nm was measured using a microplate reader. In this study, the experimental group treated with TMZ or CAPE was designated as group A, the control group treated with DMSO as group B, and the blank control group without cells as group C. The cell viability rate was calculated using the formula: (A-C)/(B-C) × 100%, where A, B, and C represent the absorbance values of group A, group B, and group C, respectively.

[2] = test system: GLUT3 mutants; assay: TMZ/CAPE uptake by U251-MG cells stably expressing GLUT3 mutants vs WT GLUT3 (LC-MS/MS); format: in vitro ADME, human; conditions: U251-MG cells expressing GLUT3 mutants with reduced affinity vs WT GLUT3
Protocol: A total of 6 × 10^6 cells were seeded into each well of a 6 cm Petri dish and cultured at 37 °C in a humidified atmosphere containing 5% CO2 for 8 h. The cells were then washed twice with PBS (137 mM NaCl, 2.7 mM KCl, 10 mM Na2HPO4, 1.8 mM KH2PO4, pH 7.4) and incubated in transport buffer (140 mM NaCl, 5 mM KCl, 2 mM MgCl2, 2 mM CaCl2, 30 mM Tris-HCl, pH 7.4) for 15 min at 37 °C. […] Cell supernatants were collected and stored at 4 °C for subsequent extraction. The harvested cells were washed three times with PBS and extracted with 500 µL of 80% methanol for 30 min at −80 °C. The cell lysate was then centrifuged at 14,000 × g for 5 min at 4 °C, followed by 2 min of sonication. The supernatant was transferred to a new centrifuge tube. For LC-MS/MS analysis, the cell supernatants and cell lysates were diluted at a specific ratio. A total of 100 µL of each sample was mixed with 100 µL of acetonitrile (or standard reagent) and 300 µL of internal standard solution (^2H3-TMZ 100 ng/mL and ^2H11-CAPE 20 ng/mL dissolved in acetonitrile). […] Quality control (QC) samples were prepared and analyzed alongside the experimental samples to monitor the stability and repeatability of the instrument. QC samples were inserted regularly and analyzed every 6–12 samples. Each experiment was repeated 5–6 times. […]

[3] = test system: U251-MG cells; assay: Colony formation assay in U251-MG cells overexpressing GLUT3 Q159A, W386A or WT; format: cell-based, human; conditions: TMZ 200 μM or CAPE 400 μM every two days
Protocol: GBM cells were harvested using 0.25% trypsin when cell viability was confirmed to be optimal, and the cell concentration was determined using a hemocytometer. A total of 1 × 10³ cells were seeded into each well of a 6-well plate and incubated at 37 °C overnight. The following day, cell morphology was examined under an inverted microscope. The culture medium was replaced every 2 days, and cell growth was monitored regularly. When cell colonies exceeded 50 cells, they were recorded. The cells were then washed with pre-warmed PBS. Subsequently, the cells were fixed with 4% paraformaldehyde (1 mL per well) for 20 min at room temperature. After fixation, the cells were washed three times with PBS. A total of 1 mL of 0.1% crystal violet staining solution was added to each well for 20 min. The wells were then washed three times with distilled water, covered with a plate lid, and left to dry overnight. The number of colonies in each well was quantified using ImageJ software.
The medium was replaced every 2 days. When colonies visible to the naked eye had formed, the cells were fixed with 4% paraformaldehyde and stained with 0.1% crystal violet as described above. The colonies were then quantified using ImageJ software for statistical analysis.

[4] = molecular target: T1, GLUT3 (Homo sapiens, UniProt P11169); assay: 2-NBDG glucose uptake competition assay in GLUT3-OE vs vector control U251-MG cells; format: cell-based; conditions: for reduction in 2-NBDG uptake: GLUT3 OE U251-MG cells, 100 μM 2-NBDG
T1 construct: expressed in transfected cells
T1 sequence (P11169 1-496): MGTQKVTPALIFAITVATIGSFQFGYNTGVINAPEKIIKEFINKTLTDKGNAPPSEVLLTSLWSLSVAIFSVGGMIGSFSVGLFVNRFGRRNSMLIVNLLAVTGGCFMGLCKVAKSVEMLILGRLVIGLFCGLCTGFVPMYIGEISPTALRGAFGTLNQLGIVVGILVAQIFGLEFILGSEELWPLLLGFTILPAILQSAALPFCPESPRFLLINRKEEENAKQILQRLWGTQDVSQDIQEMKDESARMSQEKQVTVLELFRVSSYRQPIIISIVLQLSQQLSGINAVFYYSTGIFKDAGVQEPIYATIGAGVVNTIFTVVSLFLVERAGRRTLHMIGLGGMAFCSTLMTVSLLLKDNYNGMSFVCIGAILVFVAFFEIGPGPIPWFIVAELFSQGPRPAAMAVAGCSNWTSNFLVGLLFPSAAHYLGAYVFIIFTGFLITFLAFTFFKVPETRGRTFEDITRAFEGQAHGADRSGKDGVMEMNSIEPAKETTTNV
Protocol: GBM cells were seeded into 96-well plates at a density of 4 × 10^4 cells per well and allowed to adhere for 24 h. After 6–12 h, the culture medium (containing 10% fetal bovine serum, FBS) was removed, and the cells were incubated in 100 µL of glucose-free DMEM medium for 1 h at 37 °C in a humidified atmosphere containing 5% CO2. The glucose-free medium was then replaced with 100 µL of DMEM containing 100 µM 2-NBDG, and the cells were incubated for an additional 30 min at 37 °C. Following incubation, the cells were washed three times with cold PBS to remove unincorporated 2-NBDG. The fluorescence intensity was immediately measured using a Synergy™ H1 automatic microplate reader with excitation and emission wavelengths set at 485 nm and 528 nm, respectively.
After 30 min of incubation at 37 °C, the cells were washed three times with cold PBS, and the fluorescence intensity was measured as described above.

[5] = GLUT3 Q159A vs GLUT3 WT overexpression
[6] = GLUT3 W386A vs GLUT3 WT overexpression

SMILES	CC50 at 24 h [1] [µM]	reduction in drug uptake [2]	fold increase in colony numbers [3, 5] [fold]	fold increase in colony numbers [3, 6] [fold]	reduction in 2-NBDG uptake ([4]; 1 μM drug) [%]	reduction in 2-NBDG uptake ([4]; 10 μM drug) [%]	reduction in 2-NBDG uptake ([4]; 100 μM drug) [%]	effect on glucose (2-NBDG) uptake in control cells ([4]; vector control U251-MG cells, until concentration reached 100 μM)
Cn1nnc2c(C(N)=O)ncn2c1=O [TMZ]	104 ± 21.1	60–70%	0.97	7.3	36.8	47.2	70.1	minimally affected
CCCCCOC(=O)Nc1nc(=O)n([C@@H]2O[C@H](C)[C@@H](O)[C@H]2O)cc1F [CAPE, capecitabine]	163 ± 31.8	75–95%	1.7	4.4	39.4	51.5	69.3	
